Patent publication EP4389751A1, “HETEROCYCLIC COMPOUNDS AND USES THEREOF” (Kumquat Biosciences Inc., priority 2021, dated 2024)

Target: T1, KRAS protein (His-tagged GDP-loaded G12S 1-169) (Homo sapiens, UniProt P01116, G12S)
T1 construct: His-tagged GDP-loaded G12S 1-169
Test: Covalent modification of KRAS protein, intact-protein LC-MS
Assay type: binding
Conditions: for % G12S Modification at 24 hr.: 24hrs at room temperature, KRAS protein ~2 µM; for K-Ras12S engagement after 24-hour treatment: compound pairs differ only at R^6 (warhead)
In short: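 His-tagged GDP-loaded KRAS 1-169 (~2 µM) incubated with compound 24 h at room temperature, then quenched with formic acid. Intact-protein LC-ESI-MS on C4 column; deconvoluted peak intensities of unmodified and adducted protein give percent covalent modification.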

SMILES	% G12S Modification at 24 hr.	K-Ras12S engagement after 24-hour treatment
N#Cc1c(N)sc2c(F)ccc(-c3c(Cl)cc4c(N5CCOC6CN(C(=O)n7cncn7)CC65)nc(OC[C@@]56CCCN5C[C@H](F)C6)nc4c3F)c12 (stereo partly drawn) [Compound A218, 4-(4-(6-(1H-1,2,4-triazole-1-carbonyl)hexahydropyrrolo [3,4-b][1,4]oxazin-4(4aH)-yl)-6-chloro-8-fluoro-2-(((2R,7aS)-2-fluorotetrahydro-1H-pyrrolizin-7a(5H)-yl)methoxy)quinazolin-7-yl)-2-amino-7-fluorobenzo[b]thiophene-3-carbonitrile]	+++ (+++ indicates greater than 20% labelling)	–
C#Cc1c(F)ccc2cc(O)cc(-c3ncc4c(N5CCOCC6(CN(C(=O)n7cnc(C)n7)C6)C5)nc(OC[C@@]56CCCN5C[C@H](F)C6)nc4c3F)c12 [Compound A298, (9-(7-(8-ethynyl-7-fluoro-3-hydroxynaphthalen-1-yl)-8-fluoro-2-(((2R,7aS)-2-fluorotetrahydro-1H-pyrrolizin-7a(5H)-yl)methoxy)pyrido[4,3-d]pyrimidin-4-yl)-6-oxa-2,9-diazaspiro[3.6]decan-2-yl)(3-methyl-1H-1,2,4-triazol-1-yl)methanone]	+++ (+++ indicates greater than 20% labelling)	–
COCCN1CCC(Oc2nc(N3CCCCC4(CN(C(=O)n5cncn5)C4)C3)c3cc(Cl)c(-c4ccc(F)c5sc(N)c(C#N)c45)c(F)c3n2)CC1 [Compound A119, 4-(4-(2-(1H-1,2,4-triazole-1-carbonyl)-2,6-diazaspiro[3.6]decan-6-yl)-6-chloro-8-fluoro-2-((1-(2-methoxyethyl)piperidin-4-yl)oxy)quinazolin-7-yl)-2-amino-7-fluorobenzo[b]thiophene-3-carbonitrile]	+++ (+++ indicates greater than 20% labelling)	–
Nc1nc2c(-c3c(Cl)cc4c(N5CCN(C(=O)n6cncn6)CC(F)(F)C5)nc(OC[C@@]56CCCN5C[C@H](F)C6)nc4c3F)ccc(F)c2s1 [Compound A141, (4-(7-(2-amino-7-fluorobenzo[d]thiazol-4-yl)-6-chloro-8-fluoro-2-(((2R,7aS)-2-fluorotetrahydro-1H-pyrrolizin-7a(5H)-yl)methoxy)quinazolin-4-yl)-6,6-difluoro-1,4-diazepan-1-yl)(1H-1,2,4-triazol-1-yl)methanone]	+++ (+++ indicates greater than 20% labelling)	+++ (+++: indicates equal to or greater than 20% labelling)
Cc1ncn(C(=O)N2CC3(CCCN(c4nc(OC[C@@]56CCCN5C[C@H](F)C6)nc5c(F)c(-c6ccc(F)c7sc(N)c(C#N)c67)c(Cl)cc45)C3)C2)n1 [Compound A102, 2-amino-4-(6-chloro-8-fluoro-2-(((2R,7aS)-2-fluorotetrahydro-1H-pyrrolizin-7 a(5H)-yl)methoxy)-4-(2-(3-methyl-1H-1,2,4-triazole-1-carbonyl)-2,6-diazaspiro[3.5]nonan-6-yl)quinazolin-7-yl)-7-fluorobenzo[b]thiophene-3-carbonitrile]	+++ (+++ indicates greater than 20% labelling)	–
N#Cc1c(N)sc2c(F)ccc(-c3c(Cl)cc4c(N5CCC6C5CN6C(=O)n5cncn5)nc(OC[C@@]56CCCN5C[C@H](F)C6)nc4c3F)c12 (stereo partly drawn) [Compound A183, 4-(4-(6-(1H-1,2,4-triazole-1-carbonyl)-2,6-diazabicyclo[3.2.0]heptan-2-yl)-6-chloro-8-fluoro-2-(((2R,7aS)-2-fluorotetrahydro-1H-pyrrolizin-7a(5H)-yl)methoxy)quinazolin-7-yl)-2-amino-7-fluorobenzo[b]thiophene-3-carbonitrile]	++ (++ indicates between about 1%- 20% labelling)	–
N#Cc1c(N)sc2c(F)ccc(-c3c(Cl)cc4c(N[C@H]5C[C@H]6CC[C@@H](C5)N6C(=O)n5cncn5)nc(OC[C@@]56CCCN5C[C@H](F)C6)nc4c3F)c12 [Compound A257, 4-(4-(((1R,3r,5S)-8-(1H-1,2,4-triazole-1-carbonyl)-8-azabicyclo[3.2.1]octan-3-yl)amino)-6-chloro-8-fluoro-2-(((2R,7aS)-2-fluorotetrahydro-1H-pyrrolizin-7 a(5H)-yl)methoxy)quinazolin-7-yl)-2-amino-7-fluorobenzo[b]thiophene-3-carbonitrile]	++ (++ indicates between about 1%- 20% labelling)	–
N#Cc1c(N)sc2c(F)ccc(-c3c(Cl)cc4c(N5CCC6(CN(C(=O)n7cncn7)C6)C5)nc(OC[C@@]56CCCN5C[C@H](F)C6)nc4c3F)c12 [Compound A277, 4-(4-(2-(1H-1,2,4-triazole-1-carbonyl)-2,6-diazaspiro[3.4]octan-6-yl)-6-chloro-8-fluoro-2-(((2R,7aS)-2-fluorotetrahydro-1H-pyrrolizin-7a(5H)-yl)methoxy)quinazolin-7-yl)-2-amino-7-fluorobenzo[b]thiophene-3-carbonitrile]	+++ (+++ indicates greater than 20% labelling)	+++ (+++: indicates equal to or greater than 20% labelling)
N#Cc1c(N)sc2c(F)ccc(-c3c(Cl)cc4c(N5CC6(CCCCN(C(=O)n7cncn7)C6)C5)nc(OC[C@@]56CCCN5C[C@H](F)C6)nc4c3F)c12 [Compound A285, 4-(4-(6-(1H-1,2,4-triazole-1-carbonyl)-2,6-diazaspiro[3.6]decan-2-yl)-6-chloro-8-fluoro-2-(((2R,7aS)-2-fluorotetrahydro-1H-pyrrolizin-7a(5H)-yl)methoxy)quinazolin-7-yl)-2-amino-7-fluorobenzo[b]thiophene-3-carbonitrile]	+++ (+++ indicates greater than 20% labelling)	–
N#Cc1c(N)sc2c(F)ccc(-c3c(Cl)cc4c(OC5CCCCN(C(=O)n6cncn6)C5)nc(OC[C@@]56CCCN5C[C@H](F)C6)nc4c3F)c12 (stereo partly drawn) [Compound A258, 4-(4-((1-(1H-1,2,4-triazole-1-carbonyl)azepan-3-yl)oxy)-6-chloro-8-fluoro-2-(((2R,7aS)-2-fluorotetrahydro-1H-pyrrolizin-7a(5H)-yl)methoxy)quinazolin-7-yl)-2-amino-7-fluorobenzo[b]thiophene-3-carbonitrile]	+++ (+++ indicates greater than 20% labelling)	–
N#Cc1c(N)sc2c(F)ccc(-c3c(Cl)cc4c(N5CCC6C5CCCN6C(=O)n5cncn5)nc(OC[C@@]56CCCN5C[C@H](F)C6)nc4c3F)c12 (stereo partly drawn) [Compound A152, 4-(4-(4-(1H-1,2,4-triazole-1-carbonyl)octahydro-1H-pyrrolo[3,2-b]pyridin-1-yl)-6-chloro-8-fluoro-2-(((2R,7aS)-2-fluorotetrahydro-1H-pyrrolizin-7a(5H)-yl)methoxy)quinazolin-7-yl)-2-amino-7-fluorobenzo[b]thiophene-3-carbonitrile]	+++ (+++ indicates greater than 20% labelling)	–
N#Cc1c(N)sc2c(F)ccc(-c3ncc4c(N5CCCC6(CN(C(=O)n7cncn7)C6)C5)nc(OC[C@@]56CCCN5C[C@H](F)C6)nc4c3F)c12 [Compound A134, 4-(4-(2-(1H-1,2,4-triazole-1-carbonyl)-2,6-diazaspiro[3.5]nonan-6-yl)-8-fluoro-2-(((2R,7aS)-2-fluorotetrahydro-1H-pyrrolizin-7a(5H)-yl)methoxy)pyrido[4,3-d]pyrimidin-7-yl)-2-amino-7-fluorobenzo[b]thiophene-3-carbonitrile]	+++ (+++ indicates greater than 20% labelling)	–
Cc1ncn(C(=O)N2CC3CCN(c4nc(OC[C@@]56CCCN5C[C@H](F)C6)nc5c(F)c(-c6ccc(F)c7sc(N)c(C#N)c67)c(Cl)cc45)C3C2)n1 (stereo partly drawn) [Compound A304, 2-amino-4-(6-chloro-8-fluoro-2-(((2R,7aS)-2-fluorotetrahydro-1H-pyrrolizin-7a(5H)-yl)methoxy)-4-(5-(3-methyl-1 H-1,2,4-triazole-1-carbonyl)hexahydropyrrolo[3,4-b]pyrrol-1(2H)-yl)quinazolin-7-yl)-7-fluorobenzo[b]thiophene-3-carbonitrile]	+++ (+++ indicates greater than 20% labelling)	–
N#Cc1nccn1C(=O)N1C2CCC1CN(c1nc(OC[C@@]34CCCN3C[C@H](F)C4)nc3c(F)c(-c4ccc(F)c5sc(N)nc45)c(Cl)cc13)C2 [Compound A170, 1-(3-(7-(2-amino-7-fluorobenzo[d]thiazol-4-yl)-6-chloro-8-fluoro-2-(((2R,7aS)-2-fluorotetrahydro-1H-pyrrolizin-7a(5H)-yl)methoxy)quinazolin-4-yl)-3,8-diazabicyclo[3.2. 1]octane-8-carbonyl)-1H-imidazole-2-carbonitrile]	++ (++ indicates between about 1%- 20% labelling)	–
Cc1ncn(C(=O)N2CC3(C2)CN(c2nc(OC[C@@]45CCCN4C[C@H](F)C5)nc4c(F)c(-c5ccc(F)c6sc(N)c(C#N)c56)c(Cl)cc24)CCO3)n1 [Compound A148, 2-amino-4-(6-chloro-8-fluoro-2-(((2R,7aS)-2-fluorotetrahydro-1H-pyrrolizin-7 a(5H)-yl)methoxy)-4-(2-(3-methyl-1H-1,2,4-triazole-1-carbonyl)-5-oxa-2,8-diazaspiro[3.5]nonan-8-yl)quinazolin-7-yl)-7-fluorobenzo[b]thiophene-3-carbonitrile]	+++ (+++ indicates greater than 20% labelling)	–
CN1CCC[C@H]1COc1nc(N2CCOC3(CN(C(=O)n4cncn4)C3)C2)c2cc(Cl)c(-c3ccc(F)c4sc(N)c(C#N)c34)c(F)c2n1 [Compound A137, 4-(4-(2-(1H-1,2,4-triazole-1-carbonyl)-5-oxa-2,8-diazaspiro[3.5]nonan-8-yl)-6-chloro-8-fluoro-2-(((S)-1-methylpyrrolidin-2-yl)methoxy)quinazolin-7-yl)-2-amino-7-fluorobenzo[b]thiophene-3-carbonitrile]	+++ (+++ indicates greater than 20% labelling)	–
